Our source for the IC50 values is patent publication US9340590B2 (priority 2011, dated 2016).

What all share (experiment): cell-based
One assay concerns the target hNav1.5 (Homo sapiens, UniProt Q14524). The following applies: IonWorks Quattro, Use; read-out: IWQ Use Nav1.5. (Patch clamp records ionic current or voltage across a cell membrane.)
In a further assay the target is hNav1.3 (Homo sapiens, UniProt Q9NY46). The following applies: IonWorks Quattro, Use; read-out: IWQ Use Nav1.3.
The next assay concerns the target hNav1.7 (Homo sapiens, UniProt Q15858). It counts as cell-based. To be noted: IonWorks Quattro, Use; read-out: IWQ Use Nav1.7.

The structures appear in SMILES notation. Positions of bridges follow the written chain, without caps; N, C: chain ends. Non-standard residues stand in square brackets, D forms with d. Residues, ends and D or L forms follow the SMILES beside them. Phe(4-COOH) = N[C@@H](Cc1ccc(C(=O)O)cc1)C(=O)O; 2Pal = N[C@@H](Cc1ccccn1)C(=O)O

Chain of hNav1.3 (Q9NY46 whole entry, looked up): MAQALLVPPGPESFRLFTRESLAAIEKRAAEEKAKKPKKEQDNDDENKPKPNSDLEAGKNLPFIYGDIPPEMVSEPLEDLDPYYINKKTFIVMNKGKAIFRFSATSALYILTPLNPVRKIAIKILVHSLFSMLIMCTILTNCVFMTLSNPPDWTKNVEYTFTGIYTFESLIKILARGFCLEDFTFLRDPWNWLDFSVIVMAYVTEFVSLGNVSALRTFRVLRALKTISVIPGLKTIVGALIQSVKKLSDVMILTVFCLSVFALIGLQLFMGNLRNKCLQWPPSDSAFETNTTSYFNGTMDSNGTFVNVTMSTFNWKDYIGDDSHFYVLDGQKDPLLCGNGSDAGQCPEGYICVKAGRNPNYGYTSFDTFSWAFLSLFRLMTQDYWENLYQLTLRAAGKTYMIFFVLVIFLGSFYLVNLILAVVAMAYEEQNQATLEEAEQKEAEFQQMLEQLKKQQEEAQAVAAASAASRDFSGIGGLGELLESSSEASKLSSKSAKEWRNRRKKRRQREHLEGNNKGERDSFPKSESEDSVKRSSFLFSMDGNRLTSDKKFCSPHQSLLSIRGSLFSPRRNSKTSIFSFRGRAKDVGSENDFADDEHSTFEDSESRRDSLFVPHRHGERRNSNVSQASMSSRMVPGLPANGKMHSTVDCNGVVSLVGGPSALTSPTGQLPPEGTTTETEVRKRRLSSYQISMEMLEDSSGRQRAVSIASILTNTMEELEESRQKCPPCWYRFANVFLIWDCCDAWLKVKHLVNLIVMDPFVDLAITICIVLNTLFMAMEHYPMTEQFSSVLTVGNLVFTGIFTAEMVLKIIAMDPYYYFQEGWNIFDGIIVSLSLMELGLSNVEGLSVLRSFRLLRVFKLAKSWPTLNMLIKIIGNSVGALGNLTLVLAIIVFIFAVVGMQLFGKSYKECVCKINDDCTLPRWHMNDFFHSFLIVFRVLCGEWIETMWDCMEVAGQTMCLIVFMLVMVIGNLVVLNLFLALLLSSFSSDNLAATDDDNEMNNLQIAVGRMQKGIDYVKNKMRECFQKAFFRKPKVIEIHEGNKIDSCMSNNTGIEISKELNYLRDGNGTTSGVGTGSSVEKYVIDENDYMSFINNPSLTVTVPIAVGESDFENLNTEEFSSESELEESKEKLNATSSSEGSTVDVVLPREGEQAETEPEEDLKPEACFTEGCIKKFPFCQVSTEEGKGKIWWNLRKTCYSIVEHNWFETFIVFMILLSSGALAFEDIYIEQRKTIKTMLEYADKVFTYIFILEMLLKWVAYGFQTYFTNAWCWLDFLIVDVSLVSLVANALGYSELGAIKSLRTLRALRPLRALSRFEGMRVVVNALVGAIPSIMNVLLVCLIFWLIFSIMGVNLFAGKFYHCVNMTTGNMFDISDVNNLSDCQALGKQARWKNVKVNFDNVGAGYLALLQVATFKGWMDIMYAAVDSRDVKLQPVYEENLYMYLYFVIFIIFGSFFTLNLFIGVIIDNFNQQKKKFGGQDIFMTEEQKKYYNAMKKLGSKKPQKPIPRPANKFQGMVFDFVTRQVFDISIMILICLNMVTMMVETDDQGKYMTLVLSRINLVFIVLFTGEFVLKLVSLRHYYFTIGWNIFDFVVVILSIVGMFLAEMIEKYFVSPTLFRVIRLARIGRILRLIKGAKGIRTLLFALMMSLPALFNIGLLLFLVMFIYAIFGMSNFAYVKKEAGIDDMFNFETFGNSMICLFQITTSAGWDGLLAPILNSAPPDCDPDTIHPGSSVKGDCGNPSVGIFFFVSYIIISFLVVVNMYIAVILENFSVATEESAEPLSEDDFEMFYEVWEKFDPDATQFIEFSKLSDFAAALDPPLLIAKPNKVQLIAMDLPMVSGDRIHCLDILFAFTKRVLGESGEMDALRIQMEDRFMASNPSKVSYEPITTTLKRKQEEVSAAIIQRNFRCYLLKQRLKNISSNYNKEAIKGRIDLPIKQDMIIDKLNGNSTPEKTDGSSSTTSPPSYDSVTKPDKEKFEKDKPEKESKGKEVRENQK
Chain of hNav1.7 (Q15858 whole entry, looked up): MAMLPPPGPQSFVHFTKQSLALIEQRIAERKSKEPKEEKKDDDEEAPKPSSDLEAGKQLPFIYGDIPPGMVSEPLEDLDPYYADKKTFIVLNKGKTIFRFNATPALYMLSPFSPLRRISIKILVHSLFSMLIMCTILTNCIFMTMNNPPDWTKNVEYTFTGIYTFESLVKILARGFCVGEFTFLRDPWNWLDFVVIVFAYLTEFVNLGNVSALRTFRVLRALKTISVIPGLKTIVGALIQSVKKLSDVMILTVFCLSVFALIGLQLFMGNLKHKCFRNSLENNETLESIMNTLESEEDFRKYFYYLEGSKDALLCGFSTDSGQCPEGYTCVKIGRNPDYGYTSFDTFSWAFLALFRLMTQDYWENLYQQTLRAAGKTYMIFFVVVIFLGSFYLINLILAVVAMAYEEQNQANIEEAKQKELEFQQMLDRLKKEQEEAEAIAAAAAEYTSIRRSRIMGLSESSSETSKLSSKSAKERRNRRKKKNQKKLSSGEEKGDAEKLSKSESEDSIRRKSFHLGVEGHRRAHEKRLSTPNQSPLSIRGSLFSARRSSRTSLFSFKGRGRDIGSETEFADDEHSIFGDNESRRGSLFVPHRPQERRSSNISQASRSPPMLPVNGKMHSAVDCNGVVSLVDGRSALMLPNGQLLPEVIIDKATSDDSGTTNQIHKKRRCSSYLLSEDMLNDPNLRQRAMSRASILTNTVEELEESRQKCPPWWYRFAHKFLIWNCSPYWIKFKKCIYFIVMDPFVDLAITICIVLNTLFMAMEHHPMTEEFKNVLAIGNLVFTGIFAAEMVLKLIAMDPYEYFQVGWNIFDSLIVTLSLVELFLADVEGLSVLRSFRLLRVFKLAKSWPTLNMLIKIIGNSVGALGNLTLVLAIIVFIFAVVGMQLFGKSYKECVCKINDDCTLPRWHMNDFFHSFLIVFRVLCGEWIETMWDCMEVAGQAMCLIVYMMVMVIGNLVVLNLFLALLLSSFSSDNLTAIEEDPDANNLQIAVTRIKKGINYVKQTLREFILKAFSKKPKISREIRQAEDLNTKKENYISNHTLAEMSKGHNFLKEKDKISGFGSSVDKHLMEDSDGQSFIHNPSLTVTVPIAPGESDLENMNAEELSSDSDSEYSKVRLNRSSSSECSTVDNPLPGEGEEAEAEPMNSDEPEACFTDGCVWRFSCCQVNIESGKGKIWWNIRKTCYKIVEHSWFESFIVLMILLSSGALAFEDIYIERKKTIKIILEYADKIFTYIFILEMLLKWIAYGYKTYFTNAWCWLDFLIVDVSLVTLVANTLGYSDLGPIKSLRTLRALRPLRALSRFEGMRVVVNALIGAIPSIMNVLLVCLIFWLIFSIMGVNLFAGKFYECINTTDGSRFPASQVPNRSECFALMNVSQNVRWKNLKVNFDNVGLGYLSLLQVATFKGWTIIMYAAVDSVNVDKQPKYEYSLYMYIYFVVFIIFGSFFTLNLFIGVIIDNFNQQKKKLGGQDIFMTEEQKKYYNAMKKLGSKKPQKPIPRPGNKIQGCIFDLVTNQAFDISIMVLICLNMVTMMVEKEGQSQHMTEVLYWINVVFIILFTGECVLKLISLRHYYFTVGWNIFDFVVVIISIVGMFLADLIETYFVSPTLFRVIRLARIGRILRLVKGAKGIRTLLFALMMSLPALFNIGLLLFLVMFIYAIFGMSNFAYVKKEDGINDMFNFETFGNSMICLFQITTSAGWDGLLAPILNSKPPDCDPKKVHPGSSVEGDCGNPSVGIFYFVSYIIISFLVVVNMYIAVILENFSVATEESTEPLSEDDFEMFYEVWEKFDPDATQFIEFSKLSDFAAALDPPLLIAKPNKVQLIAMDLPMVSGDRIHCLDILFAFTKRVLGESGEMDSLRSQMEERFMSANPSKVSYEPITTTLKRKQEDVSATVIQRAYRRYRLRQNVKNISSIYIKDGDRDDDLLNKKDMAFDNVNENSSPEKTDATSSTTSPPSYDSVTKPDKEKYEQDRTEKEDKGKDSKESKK

`CC[C@H](C)[C@@H]1NC(=O)[C@@H]2CSSC[C@@H]3NC(=O)[C@H](C(C)C)NC(=O)[C@H](CC(C)C)NC(=O)[C@H](CC(N)=O)NC(=O)[C@@H]4CCCN4C(=O)[C@H](Cc4ccccn4)NC(=O)[C@H](CSSC[C@H](NC(=O)[C@@H](N)CC(=O)O)C(=O)N[C@@H](CC(C)C)C(=O)NCC(=O)N[C@@H](Cc4ccccc4)C(=O)N[C@@H](CCSC)C(=O)N[C@@H](CCCNC(=N)N)C(=O)N[C@@H](CCCCN)C(=O)N2)NC(=O)[C@H](CSSC[C@@H](C(=O)N[C@@H](CCCCN)C(=O)N[C@@H](Cc2ccc(O)cc2)C(=O)N[C@H](C(=O)N[C@@H](Cc2ccccc2)C(N)=O)C(C)C)NC(=O)[C@H](Cc2c[nH]c4ccccc24)NC(=O)[C@H](CCCCN)NC(=O)[C@H](Cc2cnc[nH]2)NC(=O)[C@H]([C@@H](C)O)NC(=O)[C@H](CCCNC(=N)N)NC(=O)[C@H](CO)NC3=O)NC(=O)[C@H](CCCCN)NC(=O)[C@H](CC(=O)O)NC(=O)[C@H](CC(N)=O)NC(=O)[C@H](CC(=O)O)NC(=O)[C@@H]2CCCN2C1=O` [compound 316] (H-DCLGFMRKCIPDNDKCC[2Pal]PNLVCSRTHKWCKYVF-NH2; disulfide 2-17, 9-23, 16-30): the IC50 at hNav1.5 is 9.17 µM; on hNav1.3, 0.06 µM; on hNav1.7, 0.19 µM.

Regarding `CC[C@H](C)[C@@H]1NC(=O)[C@@H]2CSSC[C@@H]3NC(=O)[C@H](C(C)C)NC(=O)[C@H](Cc4ccc(C(=O)O)cc4)NC(=O)[C@H](CC(N)=O)NC(=O)[C@@H]4CCCN4C(=O)[C@H](CCCNC(=N)N)NC(=O)[C@H](CSSC[C@H](NC(=O)[C@@H](N)CC(=O)O)C(=O)N[C@@H](CC(C)C)C(=O)NCC(=O)N[C@@H](Cc4ccccc4)C(=O)N[C@@H](CCSC)C(=O)N[C@@H](CCCNC(=N)N)C(=O)N[C@@H](CCCCN)C(=O)N2)NC(=O)[C@H](CSSC[C@@H](C(=O)N[C@@H](CCCCN)C(=O)N[C@@H](Cc2ccc(O)cc2)C(=O)N[C@H](C(=O)N[C@@H](Cc2ccccc2)C(N)=O)C(C)C)NC(=O)[C@H](Cc2c[nH]c4ccccc24)NC(=O)[C@H](CCCCN)NC(=O)[C@H](Cc2c[nH]cn2)NC(=O)[C@H]([C@@H](C)O)NC(=O)[C@H](CCCNC(=N)N)NC(=O)[C@H](CO)NC3=O)NC(=O)[C@H](CCCCN)NC(=O)[C@H](CC(=O)O)NC(=O)[C@H](CC(N)=O)NC(=O)[C@H](CC(=O)O)NC(=O)[C@@H]2CCCN2C1=O` [compound 317] (H-DCLGFMRKCIPDNDKCCRPN[Phe(4-COOH)]VCSRTHKWCKYVF-NH2; disulfide 2-17, 9-23, 16-30), the IC50 on hNav1.5 is 8.9 µM; at hNav1.3, 3.67 µM; at hNav1.7, 3.98 µM.

Take `CC[C@H](C)[C@@H]1NC(=O)[C@@H]2CSSC[C@@H]3NC(=O)[C@H](C(C)C)NC(=O)[C@H](Cc4ccccn4)NC(=O)[C@H](CC(N)=O)NC(=O)[C@@H]4CCCN4C(=O)[C@H](CCCNC(=N)N)NC(=O)[C@H](CSSC[C@H](NC(=O)[C@@H](N)CC(=O)O)C(=O)N[C@@H](CC(C)C)C(=O)NCC(=O)N[C@@H](Cc4ccccc4)C(=O)N[C@@H](CCSC)C(=O)N[C@@H](CCCNC(=N)N)C(=O)N[C@@H](CCCCN)C(=O)N2)NC(=O)[C@H](CSSC[C@@H](C(=O)N[C@@H](CCCCN)C(=O)N[C@@H](Cc2ccc(O)cc2)C(=O)N[C@H](C(=O)N[C@@H](Cc2ccccc2)C(N)=O)C(C)C)NC(=O)[C@H](Cc2c[nH]c4ccccc24)NC(=O)[C@H](CCCCN)NC(=O)[C@H](Cc2c[nH]cn2)NC(=O)[C@H]([C@@H](C)O)NC(=O)[C@H](CCCNC(=N)N)NC(=O)[C@H](CO)NC3=O)NC(=O)[C@H](CCCCN)NC(=O)[C@H](CC(=O)O)NC(=O)[C@H](CC(N)=O)NC(=O)[C@H](CC(=O)O)NC(=O)[C@@H]2CCCN2C1=O` [compound 318] (H-DCLGFMRKCIPDNDKCCRPN[2Pal]VCSRTHKWCKYVF-NH2; disulfide 2-17, 9-23, 16-30): the IC50 stood at 7.52 µM on hNav1.5, 0.08 µM at hNav1.3 and 0.18 µM at hNav1.7.
